According to patent US4065575A, “3-Aminomethyl derivatives of 4-chromanone” (Joullie International, priority 1975, dated 1977):
Counter-ions that a name gives are not always drawn.

What was measured:
[1] = Acute toxicity in mice (LD 50); format: in vivo; conditions: mouse, in vivo, mice, 15 days observation
Description: (§1) The study is carried out on batches of 5 Swiss female mice of the NMRI Han. strain. The products are administered either intravenously (into the caudal vein) in solution in a 9 g..permill. sodium chloride solution, or orally (probang) in suspension in a 10% solution of gum arabic.
(§2) The animals are observed for the 15 days following the administration of the products.
(§3) The LD 50 values are calculated by the method of Karber and Behrens (Arch. Exp. Pathol. Pharm. 177, 1935, page 379).

[2] = test system: isolated auricle of a rabbit; assay: Peripheral vasomotoricity, isolated and perfused auricle of a rabbit; conditions: for activation at 0.0001 mg / activation at 0.001 mg / activation at 0.01 mg / activation at 0.1 mg: Oryctolagus cuniculus, read-out: Maximum variations in the flow rate; for activation at 0.0001 mg: dose 0.1 μg.; for activation at 0.001 mg: dose 1 μg.; for activation at 0.01 mg: dose 10 μg.; for activation at 0.1 mg: dose 100 μg.
Description: The flow rate of the liquid issuing from the veins is recorded by electronic contact on a polygraph. The products to be studied are injected at increasing doses into the perfusion tube and their actions are compared to that of isoxsuprine used as the reference substance.
The results, collected in Table No. III, are expressed in the maximum percentage increase of the flow rate at the various doses used.

[3] = Cardiovascular action in dogs; format: in vivo, male Beagle dogs
Description: Male Beagle dogs weighing 9 to 12 kg. were anaesthetised by intrasaphenous injection of a 2% solution of chloralose in physiological solution, at a dose of 100 mg./kg.
The anaesthesia is maintained by slow perfusion of 5% pentobarbital (1.2 ml./hour).
The animals are tracheotomised and placed under assisted respiration by means of a Bird respirator. Their oxygenation and their acid-base equilibrium are controlled by determination of the pH, the pCO2 and the pO2 on blood samples taken from a collateral of the brachial artery (pH/gas analyser for blood, IL model 213/227).
The different parameters are recorded on a polygraph.

[4] = test system: isolated duodenum of a rat; assay: Musculotropic spasmolytic action on the isolated duodenum of a rat (barium chloride contraction); conditions: in words
Description: The experiments are carried out in accordance with the method of Magnus R. (Arch. ges. Physiol. 1904, 102, 123) on the isolated duodenum of a rat, surviving in oxygenated Tyrode liquid and kept at 38° C. The tonus and the pendular movements of the duodenum were recorded by means of a strain gauge on an electronic polygraph.
The inherent action of the products, and the antagonism exerted against the musculotropic contraction-inducing action of barium chloride was examined. Papaverine is used as the reference substance.

mice = assay: Acute toxicity in mice (LD 50); format: in vivo; conditions: intravenous; in words
Description: as §1, §2, §3

[5] = test system: hypertensive effects of electrical stimulation, adrenaline and noradrenaline; assay: α-Sympatholytic effects in amyeliated rats; format: in vivo; conditions: for % variation of the hypertensive effects obtained with adrenaline: adrenaline 1.25 to 2.5 μg./kg.; for % variation of the hypertensive effects obtained with noradrenaline: noradrenaline 1.25 to 2.5 μg./kg.
Source text: The α-sympatholytic effects of LJ 1052 and LJ 1053 are compared with those of isoxsuprine in amyeliated rats which have been prepared by a method derived from those of Shipley and Tilden (Proc. soc. Exp. Biol. Med. 1947, 64, 453-455) and of Gillespie and Muir (Br. J. Pharmac. Chemother. 1967, 30, 78-87).
The effects on the blood pressure of electrical stimulation of the thoracolumbar sympathic nerve (rectangular signals = voltage 20 to 40 volts; width 2 m. sec; frequency 10 secs.; duration 5 to 10 secs.) and of injections of adrenaline (1.25 to 2.5 μg./kg.) and of noradrenaline (1.25 to 2.5 μg./kg.) are determined before and after injection of the products tested.

[6] = dose 50 g./kg. (so in the source)
[7] = dose 100 g./kg. (so in the source)
[8] = dose 500 g./kg. (so in the source)
[9] = 0.04 mg./kg. i.v. (1/1,000 LD 50)
[10] = 0.04 mg./kg. i.v. (1/1,000 LD 50), first or only phase
[11] = 0.04 mg./kg. i.v. (1/1,000 LD 50), then

CCCNCC1COc2ccccc2C1=O (centres unmarked) [LJ 1048, 3-(n-Propylaminomethyl)-4-chromanone hydrochloride]
LD50 at 360 h ([1]; intravenous administration): 36 mg/kg
LD50 at 360 h ([1]; oral administration): 362 mg/kg
activation at 0.0001 mg [2]: 22%
activation at 0.001 mg [2]: 33%
activation at 0.01 mg [2]: 33%
activation at 0.1 mg [2]: 29%
peripheral vasodilatory action ([2]; in words): low activity
Hb (heart beat), maximum per cent variation ([3]; 0.7 mg./kg. i.v. (1/50 LD 50)): +33%
Hb, duration of action ([3]; 0.7 mg./kg. i.v. (1/50 LD 50)): > 60 min
LVP (left ventricular pressure), maximum per cent variation ([3]; 0.7 mg./kg. i.v. (1/50 LD 50)): -21%
LVP, duration of action ([3]; 0.7 mg./kg. i.v. (1/50 LD 50)): 30 min
Mean AP, duration of action ([3]; 0.7 mg./kg. i.v. (1/50 LD 50)): > 60 min
Mean AP, maximum per cent variation ([3]; 0.7 mg./kg. i.v. (1/50 LD 50)): -38%
dLVP/dt, duration of action ([3]; 0.7 mg./kg. i.v. (1/50 LD 50)): 60 min
dLVP/dt, maximum per cent variation ([3]; 0.7 mg./kg. i.v. (1/50 LD 50)): +28%

CCCCCNCC1COc2ccccc2C1=O (centres unmarked) [LJ 1046, 3-(n-Pentylaminomethyl)-4-chromanone hydrochloride]
LD50 at 360 h ([1]; intravenous administration): 18 mg/kg
LD50 at 360 h ([1]; oral administration): 237 mg/kg
musculotropic spasmolytic action compared with papaverine / within the series [4]: the most active
activation at 0.0001 mg [2]: 38%
activation at 0.001 mg [2]: 29%
activation at 0.01 mg [2]: 61%
activation at 0.1 mg [2]: 77%
maximum increases in the flow rate ([2]; all doses (0.1 to 100 μg.)): ≤ 100%
FF (mean flow rate of the femoral artery), maximum per cent variation ([3]; 0.36 mg./kg. i.v. (1/50 LD 50)): +100%
FF, duration of action ([3]; 0.36 mg./kg. i.v. (1/50 LD 50)): > 20 min
Hb (heart beat), maximum per cent variation ([3]; 0.36 mg./kg. i.v. (1/50 LD 50)): +30%
Hb, duration of action ([3]; 0.36 mg./kg. i.v. (1/50 LD 50)): > 20 min
LVP (left ventricular pressure), maximum per cent variation ([3]; 0.36 mg./kg. i.v. (1/50 LD 50)): -20%
LVP, duration of action ([3]; 0.36 mg./kg. i.v. (1/50 LD 50)): > 20 min
Mean AP, duration of action ([3]; 0.36 mg./kg. i.v. (1/50 LD 50)): > 20 min
Mean AP, maximum per cent variation ([3]; 0.36 mg./kg. i.v. (1/50 LD 50)): -36%
dLVP/dt, duration of action ([3]; 0.36 mg./kg. i.v. (1/50 LD 50)): > 20 min
dLVP/dt, maximum per cent variation ([3]; 0.36 mg./kg. i.v. (1/50 LD 50)): +43%

CC(COc1ccccc1)NC(C)C(O)c1ccc(O)cc1 (centres unmarked) [Isoxsuprine, reference compound]
intravenous LD 50 in mice (comparison of three products) (mice): practically identical
activation at 0.0001 mg [2]: 38%
activation at 0.001 mg [2]: 61%
activation at 0.01 mg [2]: 117%
activation at 0.1 mg [2]: 175%
% variation of the hypertensive effects obtained with electrical stimulation [5, 6]: -27%
% variation of the hypertensive effects obtained with adrenaline [5, 6]: -69%
% variation of the hypertensive effects obtained with noradrenaline [5, 6]: -36%
% variation of the hypertensive effects obtained with electrical stimulation [5, 7]: -25%
% variation of the hypertensive effects obtained with adrenaline [5, 7]: -75%
% variation of the hypertensive effects obtained with noradrenaline [5, 7]: -44%
% variation of the hypertensive effects obtained with electrical stimulation [5, 8]: -66%
% variation of the hypertensive effects obtained with adrenaline [5, 8]: -100%
% variation of the hypertensive effects obtained with noradrenaline [5, 8]: -67%
Diastolic AP, duration of action [3, 9]: 20 min
Diastolic AP, maximum per cent variation [3, 9]: -62%
FF (mean flow rate of the femoral artery), maximum per cent variation [3, 9]: +63%
FF, duration of action [3, 9]: 30 min
Hb (heart beat), maximum per cent variation [3, 9]: +13%
Hb, duration of action [3, 9]: 25 min
LVP, duration of action [3, 9]: 5 min
Mean AP, duration of action [3, 9]: 20 min
Mean AP, maximum per cent variation [3, 9]: -50%
Systolic AP, duration of action [3, 9]: 10 min
Systolic AP, maximum per cent variation [3, 9]: +13%
LVP (left ventricular pressure), maximum per cent variation [3, 10]: -22%
dLVP/dt, maximum per cent variation [3, 10]: -18%
dLVP/dt, duration of action, second phase ("then") [3, 11]: 5 min
dLVP/dt, maximum per cent variation, second phase ("then") [3, 11]: +12%
